Data reported in PubChem BioAssay (NCI).
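Cultured in 96-well plates, cells were exposed to test compound for 48 hours across five concentrations. TGI: total growth inhibition.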

Experiments:
Experiment in all cases: NCI tumour cell line growth inhibition, 48 h
RPMI-8226 leukemia = test system: RPMI-8226 leukemia
HOP-62 NSCLC = test system: HOP-62 NSCLC
SK-MEL-2 melanoma = test system: SK-MEL-2 melanoma
OVCAR-8 ovarian = test system: OVCAR-8 ovarian
SNB-78 CNS = test system: SNB-78 CNS
CAKI-1 renal = test system: CAKI-1 renal
MOLT-4 leukemia = test system: MOLT-4 leukemia
UACC-257 melanoma = test system: UACC-257 melanoma
UACC-62 melanoma = test system: UACC-62 melanoma
P388/ADR leukemia = test system: P388/ADR leukemia
COLO 205 colon = test system: COLO 205 colon
SNB-19 CNS = test system: SNB-19 CNS
IGROV1 ovarian = test system: IGROV1 ovarian
SNB-75 CNS = test system: SNB-75 CNS
HCT-15 colon = test system: HCT-15 colon
OVCAR-4 ovarian = test system: OVCAR-4 ovarian
SN12K1 renal = test system: SN12K1 renal
HOP-92 NSCLC = test system: HOP-92 NSCLC
K-562 leukemia = test system: K-562 leukemia
M19-MEL melanoma = test system: M19-MEL melanoma
DMS 114 small cell lung = test system: DMS 114 small cell lung
DMS 273 small cell lung = test system: DMS 273 small cell lung
CCRF-CEM leukemia = test system: CCRF-CEM leukemia
P388 leukemia = test system: P388 leukemia
HT29 colon = test system: HT29 colon
HL-60(TB) leukemia = test system: HL-60(TB) leukemia
OVCAR-5 ovarian = test system: OVCAR-5 ovarian
KM20L2 colon = test system: KM20L2 colon
UO-31 renal = test system: UO-31 renal
NCI-H522 lung = test system: NCI-H522 lung
OVCAR-3 ovarian = test system: OVCAR-3 ovarian
NCI-H226 lung = test system: NCI-H226 lung
HOP-18 NSCLC = test system: HOP-18 NSCLC
SK-MEL-28 melanoma = test system: SK-MEL-28 melanoma
SF-539 CNS = test system: SF-539 CNS
SK-MEL-5 melanoma = test system: SK-MEL-5 melanoma
A549 NSCLC = test system: A549 NSCLC
MCF7 breast = test system: MCF7 breast
EKVX NSCLC = test system: EKVX NSCLC
SF-268 CNS = test system: SF-268 CNS
MALME-3M melanoma = test system: MALME-3M melanoma
HCC-2998 colon = test system: HCC-2998 colon
NCI/ADR-RES ovarian = test system: NCI/ADR-RES ovarian
KM12 colon = test system: KM12 colon
SN12C renal = test system: SN12C renal
RXF 393 renal = test system: RXF 393 renal
SK-OV-3 ovarian = test system: SK-OV-3 ovarian
A498 renal = test system: A498 renal
DLD-1 colon = test system: DLD-1 colon
U251 CNS = test system: U251 CNS
HCT-116 colon = test system: HCT-116 colon
NCI-H23 lung = test system: NCI-H23 lung
SF-295 CNS = test system: SF-295 CNS
SW-620 colon = test system: SW-620 colon
XF 498 CNS = test system: XF 498 CNS
NCI-H460 lung = test system: NCI-H460 lung
LOX IMVI melanoma = test system: LOX IMVI melanoma

CC(C)[C@](O)(C(=O)OCC1CC[N+]2([O-])CC[C@@H](O)C12)[C@H](C)O (some centres not stated)
TGI (RPMI-8226 leukemia): > 375 µM
TGI (HOP-62 NSCLC): > 375 µM
TGI (SK-MEL-2 melanoma): > 317 µM
TGI (OVCAR-8 ovarian): > 375 µM
TGI (SNB-78 CNS): > 375 µM
TGI (CAKI-1 renal): > 375 µM
TGI (MOLT-4 leukemia): > 375 µM
TGI (UACC-257 melanoma): > 375 µM
TGI (UACC-62 melanoma): > 375 µM
TGI (P388/ADR leukemia): > 375 µM
TGI (COLO 205 colon): > 375 µM
TGI (SNB-19 CNS): > 375 µM
TGI (IGROV1 ovarian): > 375 µM
TGI (SNB-75 CNS): > 161 µM
TGI (HCT-15 colon): > 375 µM
TGI (OVCAR-4 ovarian): > 375 µM
TGI (SN12K1 renal): > 375 µM
TGI (HOP-92 NSCLC): > 375 µM
TGI (K-562 leukemia): > 375 µM
TGI (M19-MEL melanoma): > 375 µM
TGI (DMS 114 small cell lung): > 375 µM
TGI (DMS 273 small cell lung): > 375 µM
TGI (CCRF-CEM leukemia): > 375 µM
TGI (P388 leukemia): > 375 µM
TGI (HT29 colon): > 375 µM
TGI (HL-60(TB) leukemia): > 375 µM
TGI (OVCAR-5 ovarian): > 375 µM
TGI (KM20L2 colon): > 375 µM
TGI (UO-31 renal): > 375 µM
TGI (NCI-H522 lung): > 375 µM
TGI (OVCAR-3 ovarian): > 375 µM
TGI (NCI-H226 lung): > 375 µM
TGI (HOP-18 NSCLC): > 375 µM
TGI (SK-MEL-28 melanoma): > 375 µM
TGI (SF-539 CNS): > 375 µM
TGI (SK-MEL-5 melanoma): > 375 µM
TGI (A549 NSCLC): > 375 µM
TGI (MCF7 breast): > 375 µM
TGI (EKVX NSCLC): > 375 µM
TGI (SF-268 CNS): > 375 µM
TGI (MALME-3M melanoma): > 256 µM
TGI (HCC-2998 colon): > 375 µM
TGI (NCI/ADR-RES ovarian): > 375 µM
TGI (KM12 colon): > 375 µM
TGI (SN12C renal): > 375 µM
TGI (RXF 393 renal): > 375 µM
TGI (SK-OV-3 ovarian): > 375 µM
TGI (A498 renal): > 59.4 µM
TGI (DLD-1 colon): > 375 µM
TGI (U251 CNS): > 375 µM
TGI (HCT-116 colon): > 256 µM
TGI (NCI-H23 lung): > 375 µM
TGI (SF-295 CNS): > 375 µM
TGI (SW-620 colon): > 375 µM
TGI (XF 498 CNS): > 375 µM
TGI (NCI-H460 lung): > 159 µM
TGI (LOX IMVI melanoma): > 203 µM
